Data published in US8216822B2, “Bacterial host cell for the direct expression of peptides” (Unigene Laboratories, Inc., priority 2004, dated 2012).

B1: α2-macroglobulin: protease inhibitor (protein, UniProt P01023 24-1474, looked up)
Alpha-2-macroglobulin: SVSGKPQYMVLVPSLLHTETTEKGCVLLSYLNETVTVSASLESVRGNRSLFTDLEAENDVLHCVAFAVPKSSSNEEVMFLTVQVKGPTQEFKKRTTVMVKNEDSLVFVQTDKSIYKPGQTVKFRVVSMDENFHPLNELIPLVYIQDPKGNRIAQWQSFQLEGGLKQFSFPLSSEPFQGSYKVVVQKKSGGRTEHPFTVEEFVLPKFEVQVTVPKIITILEEEMNVSVCGLYTYGKPVPGHVTVSICRKYSDASDCHGEDSQAFCEKFSGQLNSHGCFYQQVKTKVFQLKRKEYEMKLHTEAQIQEEGTVVELTGRQSSEITRTITKLSFVKVDSHFRQGIPFFGQVRLVDGKGVPIPNKVIFIRGNEANYYSNATTDEHGLVQFSINTTNVMGTSLTVRVNYKDRSPCYGYQWVSEEHEEAHHTAYLVFSPSKSFVHLEPMSHELPCGHTQTVQAHYILNGGTLLGLKKLSFYYLIMAKGGIVRTGTHGLLVKQEDMKGHFSISIPVKSDIAPVARLLIYAVLPTGDVIGDSAKYDVENCLANKVDLSFSPSQSLPASHAHLRVTAAPQSVCALRAVDQSVLLMKPDAELSASSVYNLLPEKDLTGFPGPLNDQDNEDCINRHNVYINGITYTPVSSTNEKDMYSFLEDMGLKAFTNSKIRKPKMCPQLQQYEMHGPEGLRVGFYESDVMGRGHARLVHVEEPHTETVRKYFPETWIWDLVVVNSAGVAEVGVTVPDTITEWKAGAFCLSEDAGLGISSTASLRAFQPFFVELTMPYSVIRGEAFTLKATVLNYLPKCIRVSVQLEASPAFLAVPVEKEQAPHCICANGRQTVSWAVTPKSLGNVNFTVSAEALESQELCGTEVPSVPEHGRKDTVIKPLLVEPEGLEKETTFNSLLCPSGGEVSEELSLKLPPNVVEESARASVSVLGDILGSAMQNTQNLLQMPYGCGEQNMVLFAPNIYVLDYLNETQQLTPEIKSKAIGYLNTGYQRQLNYKHYDGSYSTFGERYGRNQGNTWLTAFVLKTFAQARAYIFIDEAHITQALIWLSQRQKDNGCFRSSGSLLNNAIKGGVEDEVTLSAYITIALLEIPLTVTHPVVRNALFCLESAWKTAQEGDHGSHVYTKALLAYAFALAGNQDKRKEVLKSLNEEAVKKDNSVHWERPQKPKAPVGHFYEPQAPSAEVEMTSYVLLAYLTAQPAPTSEDLTSATNIVKWITKQQNAQGGFSSTQDTVVALHALSKYGAATFTRTGKAAQVTIQSSGTFSSKFQVDNNNRLLLQQVSLPELPGEYSMKVTGEGCVYLQTSLKYNILPEKEEFPFALGVQTLPQTCDEPKAHTSFQISLSVSYTGSRSASNMAIVDVKMVSGFIPLKPTVKMLERSNHVSRTEVSSNHVLIYLDKVSNQTLSLFFTVLQDVPVRDLKPAIVKVYDYYETDEFAIAEYNAPCSKDLGNA

How the values were obtained:
[1] = tested on: proteolytic degradation of sCTgly in conditioned fermentation medium; experiment: Protease inhibitors tested for ability to reduce proteolytic degradation of sCTgly in conditioned medium; type: biochemical, E. coli; conditions: 30° C.
Protocol: Conditioned medium samples from both UGL165 (E. coli BLR transformed with pSCT 029) and UGL703 (E. coli BLR transformed with pSCT 038) Direct Expression fermentations were tested for loss of sCTgly following removal of cells and incubation of the medium spiked with sCTgly at 30° C. The concentration of sCTgly in conditioned fermentation medium was measured by CEX HPLC.

[2] = molecular target: T1, E. coli Protease III (zinc metalloprotease) in fermentation medium (Escherichia coli, UniProt P05458); experiment: Divalent cation specificity of sCTgly degradation in fermentation medium (EDTA, MgCl2, ZnCl2); type: biochemical; conditions: 15 mM added to EDTA (50 mM) pre-treated medium, 30° C., 4 hrs
T1 construct: E. coli Protease III is a periplasmic/extracellular zinc metalloprotease; endogenous in cells; host or cells: E. coli BLR (UGL703 / UGL165), cell-free conditioned fermentation medium
T1 sequence (P05458 24-962): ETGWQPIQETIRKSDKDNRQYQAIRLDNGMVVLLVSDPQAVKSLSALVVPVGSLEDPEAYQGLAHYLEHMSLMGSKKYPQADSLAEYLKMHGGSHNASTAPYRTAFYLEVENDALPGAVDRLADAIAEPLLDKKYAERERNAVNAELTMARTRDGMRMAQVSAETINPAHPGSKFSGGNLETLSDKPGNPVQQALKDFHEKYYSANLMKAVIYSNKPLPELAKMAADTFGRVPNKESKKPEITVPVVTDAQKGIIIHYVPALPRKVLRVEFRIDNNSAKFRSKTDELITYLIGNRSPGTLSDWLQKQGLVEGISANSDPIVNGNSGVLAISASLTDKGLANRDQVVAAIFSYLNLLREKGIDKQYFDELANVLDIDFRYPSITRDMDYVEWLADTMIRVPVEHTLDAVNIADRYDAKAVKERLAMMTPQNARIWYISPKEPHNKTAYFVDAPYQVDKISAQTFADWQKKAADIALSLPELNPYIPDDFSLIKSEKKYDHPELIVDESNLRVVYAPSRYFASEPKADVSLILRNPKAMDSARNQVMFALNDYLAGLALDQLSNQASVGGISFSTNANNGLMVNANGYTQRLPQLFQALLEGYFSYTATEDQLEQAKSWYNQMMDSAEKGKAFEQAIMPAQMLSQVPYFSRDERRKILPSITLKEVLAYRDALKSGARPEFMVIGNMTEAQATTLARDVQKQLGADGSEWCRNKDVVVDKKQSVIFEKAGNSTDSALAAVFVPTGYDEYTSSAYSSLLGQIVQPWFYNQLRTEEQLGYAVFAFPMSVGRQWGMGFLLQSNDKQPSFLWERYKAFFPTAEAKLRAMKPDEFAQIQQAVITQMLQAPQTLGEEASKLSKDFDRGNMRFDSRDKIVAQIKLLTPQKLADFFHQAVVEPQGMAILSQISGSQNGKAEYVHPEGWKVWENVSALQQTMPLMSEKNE

Molecule | ability to reduce or eliminate proteolytic degradation of sCTgly [1] | reactivation of proteolytic activity by divalent cation [2]
CC(C)C[C@H](NC(=O)[C@@H](O)[C@H](N)Cc1ccccc1)C(=O)O [Bestatin] | Only EDTA was able to reduce the proteolytic degradation of sCTgly | 
[Cl-].[Cl-].[Mg+2] [MgCl2] |  | magnesium was not
[Cl-].[Cl-].[Zn+2] [ZnCl2] |  | zinc was effective
B1 | Only EDTA was able to reduce the proteolytic degradation of sCTgly | 
